Source: patent US12504423B2, “Human in vitro cardiotoxicity model” (Brown University, priority 2020, dated 2025)
Like-named read-outs stand apart in the source and are kept apart here. One block for each compound: values may come before it.

Assays:
hiPSC-CM microtissues [1] = experiment: Cardiac TEEM: optical mapping of action potentials in 3D human cardiac microtissues
Procedure: Optical mapping and automated action potential duration analysis. The inventors used an Olympus MVX10 microscope to image 1.2×1.2-mm^2 regions. Microtissues were loaded with voltage-sensitive di-4-ANEPPS (5 μM for ten minutes at 35° C.) for measurements of membrane potential (Vm). […] Fluorescence images were filtered using nonlinear bilateral filter (spatial filter: 5×5 window, temporal filter: 21-point window) to preserve action potential upstrokes from blurring. Typically, four microtissues were recorded simultaneously/scan at this magnification. A single microtissue is typically covered by ˜60 pixels at this magnification. The pixels with action potentials were identified from Fast Fourier transformation (FFT) of fluorescence signals. After appropriate thresholding and image segmentation, the region of each microtissue was grouped and the fluorescence signals from the pixels in the same microtissue were average and used for action potential analysis.
Optical mapping and automated action potential analysis (alternative). Microtissues were loaded with voltage-sensitive di-4-ANEPPS (5 μM for 10 min at 35° C.) for measurements of membrane potential (Vm). […] Typically, four microtissues were recorded simultaneously per scan at this magnification. A step-by-step illustration of automated data analysis is available in FIGS. 4A-G. Briefly, the pixels with APs were identified from Fast Fourier transformation (FFT) of fluorescence signals. After appropriate thresholding and image segmentation, the region of each microtissue was grouped and the fluorescence signals from the pixels in the same microtissue were average and used for action potential analysis.
Validation and screening of toxicants for arrhythmogenic risk. […] Concentrations are selected to span human exposure levels or blood serum levels and quantify dose-dependent changes over a wide range (with a goal of more than 10,000× change in concentration and at least 4-6 doses). A single mold of microtissues is imaged for approximately 1 hour to assure quality recordings without signal degradation due to tissue degeneration, enabling measurement under control conditions (zero compound) and 3 doses.
Validation and screening of toxicants for arrhythmogenic risk (alternative). […] Microtissues were stimulated with a platinum field stimulation electrode. Myopacer EP field stimulator, IonOptix, Milton, MA, USA). […] BPA was dissolved in 10% ethanol stock solution and diluted in Tyrode solution to the final concentration. Microtissues were exposed to vehicle (DMSO or ethanol) and the indicated concentrations of test compounds for 20 min, and action potentials were measured as described above.
The Cardiac Tissue-Engineered Model (TEEM) uses human cardiomyocytes derived from human pluripotent stem cells, which express all the human proteins, ion channels and currents necessary for assessing a human-specific arrhythmic and cardiotoxic response, including the seven critical ion channels identified by the FDA's CiPA initiative. […] The intensity of the signal gives a reading of voltage (in the millivolt range) overtime, which is the action potential trace. A similar dye that fluoresces in response to the intracellular calcium (Ca^2+) concentration gives a calcium transient (CaT) for each activation of each cardiac microtissue. See above.

sodium channel Nav1.5 = sodium channel Nav1.5 (Homo sapiens, UniProt Q14524); conditions: read-out: IC50, block of sodium channel Nav1.5; cited from earlier work
Sequence of sodium channel Nav1.5 (Q14524 whole entry): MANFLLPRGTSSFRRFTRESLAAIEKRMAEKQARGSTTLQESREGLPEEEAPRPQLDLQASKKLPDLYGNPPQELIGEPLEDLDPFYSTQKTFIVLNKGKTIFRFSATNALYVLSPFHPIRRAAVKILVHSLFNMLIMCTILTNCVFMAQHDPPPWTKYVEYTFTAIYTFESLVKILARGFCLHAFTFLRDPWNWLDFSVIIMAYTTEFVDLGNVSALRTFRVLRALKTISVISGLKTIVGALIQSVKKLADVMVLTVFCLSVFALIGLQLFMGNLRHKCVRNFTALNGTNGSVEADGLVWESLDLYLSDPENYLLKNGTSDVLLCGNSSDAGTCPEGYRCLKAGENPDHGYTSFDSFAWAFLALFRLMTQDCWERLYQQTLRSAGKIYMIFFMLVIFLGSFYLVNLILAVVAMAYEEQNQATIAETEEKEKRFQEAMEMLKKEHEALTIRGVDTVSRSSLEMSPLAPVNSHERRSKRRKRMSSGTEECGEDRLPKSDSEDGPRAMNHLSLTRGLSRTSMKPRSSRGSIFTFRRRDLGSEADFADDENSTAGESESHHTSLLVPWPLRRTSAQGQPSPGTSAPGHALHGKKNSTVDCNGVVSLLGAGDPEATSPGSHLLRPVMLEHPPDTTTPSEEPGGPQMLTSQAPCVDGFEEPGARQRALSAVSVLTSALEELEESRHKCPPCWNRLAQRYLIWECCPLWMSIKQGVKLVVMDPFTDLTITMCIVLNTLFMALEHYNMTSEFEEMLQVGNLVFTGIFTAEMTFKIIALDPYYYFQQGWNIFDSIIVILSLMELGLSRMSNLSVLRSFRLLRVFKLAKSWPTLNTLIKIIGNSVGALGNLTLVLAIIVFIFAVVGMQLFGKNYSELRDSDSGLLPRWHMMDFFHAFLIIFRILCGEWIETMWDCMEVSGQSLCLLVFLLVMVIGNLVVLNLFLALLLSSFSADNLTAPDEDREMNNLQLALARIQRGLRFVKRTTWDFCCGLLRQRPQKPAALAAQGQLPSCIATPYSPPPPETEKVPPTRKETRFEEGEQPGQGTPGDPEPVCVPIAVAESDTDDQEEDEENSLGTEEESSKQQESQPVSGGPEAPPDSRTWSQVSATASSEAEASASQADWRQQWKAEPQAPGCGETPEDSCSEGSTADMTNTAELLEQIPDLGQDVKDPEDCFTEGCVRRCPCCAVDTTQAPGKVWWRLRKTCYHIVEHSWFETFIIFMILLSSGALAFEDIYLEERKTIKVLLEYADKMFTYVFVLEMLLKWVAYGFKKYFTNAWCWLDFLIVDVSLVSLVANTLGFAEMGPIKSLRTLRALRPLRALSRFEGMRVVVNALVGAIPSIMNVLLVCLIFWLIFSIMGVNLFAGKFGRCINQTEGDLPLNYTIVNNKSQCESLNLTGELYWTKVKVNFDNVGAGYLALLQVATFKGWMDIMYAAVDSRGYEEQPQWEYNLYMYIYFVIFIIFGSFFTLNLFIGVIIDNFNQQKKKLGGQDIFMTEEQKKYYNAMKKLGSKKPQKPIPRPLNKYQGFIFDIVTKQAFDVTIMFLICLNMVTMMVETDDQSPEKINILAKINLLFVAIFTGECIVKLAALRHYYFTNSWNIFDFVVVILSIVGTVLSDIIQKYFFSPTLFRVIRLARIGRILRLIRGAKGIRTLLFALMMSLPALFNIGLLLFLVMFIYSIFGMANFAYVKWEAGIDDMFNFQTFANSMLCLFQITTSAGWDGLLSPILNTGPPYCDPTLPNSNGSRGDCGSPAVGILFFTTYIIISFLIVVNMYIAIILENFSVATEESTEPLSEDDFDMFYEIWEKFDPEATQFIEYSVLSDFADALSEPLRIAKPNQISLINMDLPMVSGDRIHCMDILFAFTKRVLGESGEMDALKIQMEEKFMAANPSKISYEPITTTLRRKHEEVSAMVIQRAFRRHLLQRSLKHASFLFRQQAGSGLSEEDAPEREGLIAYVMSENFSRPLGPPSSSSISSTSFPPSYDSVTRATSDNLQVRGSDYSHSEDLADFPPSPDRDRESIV

rats = conditions: rodents; greater sensitivity in female rats than male rats; cited from earlier work
hiPSC-CM microtissues [2] = experiment: Calcium transient (CaT) recording of spontaneous activity in hiPSC-CM microtissues; format: cell-based, human; conditions: 100 nM
Procedure: FIGS. 1A-C are a set of graphs showing the stimulation protocol and CaT metrics. […] CaTs were recorded using Rhod-2/AM. […] Activation Interval (AI), the time between two CaTs, will be measured before and after drug perfusion to detect altered spontaneous activity. CaTs recorded with the genetically encoded optogenetic probe GCaMP.
The inventors also developed a platform suitable for cardiotoxicity testing that can detect alteration in Cai release and removal processes from hiPSC-CM microtissues by measuring detailed kinetic parameters of Cai dynamics during a proposed stimulation protocol as shown in FIGS. 1A-C.

[3] = Ranolazine steady-state Cmax in blood serum (FDA documentation); format: in vivo; conditions: human, 1000 mg, 1000 mg b.i.d., bracketed conversion
[4] = system: late sodium current (INa,late); conditions: read-out: IC50, late sodium current (INa,late) block; cited from earlier work
late ICa = late ICa (Homo sapiens, UniProt Q13936); conditions: cited from earlier work
INCX = INCX (Homo sapiens, UniProt P32418); conditions: cited from earlier work
peak ICa = peak ICa (Homo sapiens, UniProt Q13936); conditions: cited from earlier work
[5] = 1000 mg b.i.d.; blood serum; cited from earlier work

effect on APDtri (hiPSC-CM microtissues [1]): no effect on APDtri
Compound: COC(=O)C1=C(C)NC(C)=C([N+](=O)[O-])C1c1ccccc1C(F)(F)F (stereo not shown) [BayK8644]

average reduction of APD80 (hiPSC-CM microtissues [1]; human, 20 min, 100 nM): 45 milliseconds
Compound: CC(C)NCC(O)c1ccc(O)c(O)c1 (stereo not shown) [Isoproterenol, isoproterenol]
spontaneous activity (CaTs, GCaMP) (hiPSC-CM microtissues [2]): spontaneous activity increased

Dose-dependent mean difference of APD30 (hiPSC-CM microtissues [1]; human, 20 min, 2 μM): 4.692
Dose-dependent mean difference of APD60 (hiPSC-CM microtissues [1]; human, 20 min, 2 μM): −2.806
Dose-dependent mean difference of APD80 (hiPSC-CM microtissues [1]; human, 20 min, 2 μM): 4.629
Dose-dependent mean difference of APDM×R (hiPSC-CM microtissues [1]; human, 20 min, 2 μM): −9.87
Dose-dependent mean difference of APDtri (hiPSC-CM microtissues [1]; human, 20 min, 2 μM): −7.031
Dose-dependent mean difference of Rise Time (hiPSC-CM microtissues [1]; human, 20 min, 2 μM): 0.1436
Dose-dependent mean difference of APD30 (hiPSC-CM microtissues [1]; human, 20 min, 10 μM): 20.71
Dose-dependent mean difference of APD60 (hiPSC-CM microtissues [1]; human, 20 min, 10 μM): 20.5335
Dose-dependent mean difference of APD80 (hiPSC-CM microtissues [1]; human, 20 min, 10 μM): 79.1112
Dose-dependent mean difference of APDM×R (hiPSC-CM microtissues [1]; human, 20 min, 10 μM): 13.1316
Dose-dependent mean difference of APDtri (hiPSC-CM microtissues [1]; human, 20 min, 10 μM): −7.337
Dose-dependent mean difference of Rise Time (hiPSC-CM microtissues [1]; human, 20 min, 10 μM): 1.025
Dose-dependent mean difference of APD30 (hiPSC-CM microtissues [1]; human, 20 min, 100 μM): 57.9565
Dose-dependent mean difference of APD60 (hiPSC-CM microtissues [1]; human, 20 min, 100 μM): 108.574
Dose-dependent mean difference of APD80 (hiPSC-CM microtissues [1]; human, 20 min, 100 μM): 242.133
Dose-dependent mean difference of APDM×R (hiPSC-CM microtissues [1]; human, 20 min, 100 μM): 353.211
Dose-dependent mean difference of APDtri (hiPSC-CM microtissues [1]; human, 20 min, 100 μM): 244.733
Dose-dependent mean difference of Rise Time (hiPSC-CM microtissues [1]; human, 20 min, 100 μM): 12.5916
Cmax ([3]; read-out: 95% of Cmax values): 0.98 to 14.2 µM
Cmax ([3]; read-out: mean steady-state Cmax): 6 µM
Compound: COc1ccccc1OCC(O)CN1CCN(CC(=O)Nc2c(C)cccc2C)CC1 (stereo not shown) [Ranolazine, ranolazine]
IC50 [4]: 5.9 µM
IC50 (late ICa): 50 µM
IC50 (INCX): 91 µM
IC50 (peak ICa): 296 µM
mean steady-state Cmax [5]: 2569 ng/mL

Second part, the compound before the results:

Compound: Nc1ccncc1 [4-AP]
effect on APDtri (hiPSC-CM microtissues [1]): no effect on APDtri
APD (hiPSC-CM microtissues [1]; 0.5 mM): APD prolongation
slope of APDtri versus APDMxR (hiPSC-CM microtissues [1]; 0.5 mM, p=0.199): did not steepen

Compound: CC(C)(c1ccc(O)cc1)c1ccc(O)cc1 [BPA, bisphenol-A]
action potential duration measurements (hiPSC-CM microtissues [1]): shifts action potential duration measurements
action potential rise time (hiPSC-CM microtissues [1]): slowed action potential rise time
stimulation delay (hiPSC-CM microtissues [1]): increased stimulation delay
APD30 and APD50 relative to APD80 (hiPSC-CM microtissues [1]; female, human, 20 min): APD30 and APD50 were shortened more than APD80
Dose-dependent mean difference of APD30 (hiPSC-CM microtissues [1]; human, 20 min, 1 nM): 34.5043
Dose-dependent mean difference of APD60 (hiPSC-CM microtissues [1]; human, 20 min, 1 nM): 37.3566
Dose-dependent mean difference of APD80 (hiPSC-CM microtissues [1]; human, 20 min, 1 nM): 42.7763
Dose-dependent mean difference of APDM×R (hiPSC-CM microtissues [1]; human, 20 min, 1 nM): 34.0012
Dose-dependent mean difference of APDtri (hiPSC-CM microtissues [1]; human, 20 min, 1 nM): −3.327
Dose-dependent mean difference of Rise Time (hiPSC-CM microtissues [1]; human, 20 min, 1 nM): 1.176
Dose-dependent mean difference of APD30 (hiPSC-CM microtissues [1]; human, 20 min, 10 nM): −15.3826
Dose-dependent mean difference of APD60 (hiPSC-CM microtissues [1]; human, 20 min, 10 nM): −14.0569
Dose-dependent mean difference of APD80 (hiPSC-CM microtissues [1]; human, 20 min, 10 nM): 11.1129
Dose-dependent mean difference of APDM×R (hiPSC-CM microtissues [1]; human, 20 min, 10 nM): −14.786
Dose-dependent mean difference of APDtri (hiPSC-CM microtissues [1]; human, 20 min, 10 nM): −0.672
Dose-dependent mean difference of Rise Time (hiPSC-CM microtissues [1]; human, 20 min, 10 nM): −0.3497
Dose-dependent mean difference of APD30 (hiPSC-CM microtissues [1]; human, 20 min, 100 nM): −17.808
Dose-dependent mean difference of APD60 (hiPSC-CM microtissues [1]; human, 20 min, 100 nM): −16.8623
Dose-dependent mean difference of APD80 (hiPSC-CM microtissues [1]; human, 20 min, 100 nM): 10.0440
Dose-dependent mean difference of APDM×R (hiPSC-CM microtissues [1]; human, 20 min, 100 nM): −23.7763
Dose-dependent mean difference of APDtri (hiPSC-CM microtissues [1]; human, 20 min, 100 nM): −6.828
Dose-dependent mean difference of Rise Time (hiPSC-CM microtissues [1]; human, 20 min, 100 nM): −1.734
Dose-dependent mean difference of APD30 (hiPSC-CM microtissues [1]; human, 20 min, 1000 nM): −28.3006
Dose-dependent mean difference of APD60 (hiPSC-CM microtissues [1]; human, 20 min, 1000 nM): −31.0489
Dose-dependent mean difference of APD80 (hiPSC-CM microtissues [1]; human, 20 min, 1000 nM): −4.641
Dose-dependent mean difference of APDM×R (hiPSC-CM microtissues [1]; human, 20 min, 1000 nM): −40.7783
Dose-dependent mean difference of APDtri (hiPSC-CM microtissues [1]; human, 20 min, 1000 nM): −9.615
Dose-dependent mean difference of Rise Time (hiPSC-CM microtissues [1]; human, 20 min, 1000 nM): −2.203
IC50 (sodium channel Nav1.5): 25 µM
concentration promoting arrhythmias (rats): 0.001 µM
